Measured values published in patent US20150335719A1, “Intravitreal Injection of a Chimeric Phage Endolysin Ply187; Protection from Staphylococcus aureus Endophthalmitis” (priority 2014, published 2015).

Tests used:
S. aureus strain RN6390 = assay: Resistance development assay by repeated exposure in an MIC assay; type: cell-based, Staphylococcus aureus; conditions: RN6390, up to 10 rounds of exposure
Protocol: Error bars represent SEM for three independent experiments performed in triplicates. […] Cells surviving at half (½) of the MIC value were used as an inoculum for each subsequent round of exposure. The change in susceptibility is recorded and presented as fold change resistance from day 1 to 10 of exposure and also after 5 days of growth (without any selection pressure) following the 10th day (represented as 10+5). The data represent means±SEM of two independent experiments performed in triplicate.
To verify and quantify the lytic activity against live S. aureus, we have tested Ply187AN-KSH3b in the Turbidity Reduction Assay. The turbidity assay measures the drop in optical density (OD) resulting from lysis of the target bacteria with the phage endolysin-derived protein. Turbidity reduction assays by chimeric Ply187AN-KSH3b were performed in a 96 well plate as described previously by Becker et al. (2009a, 2009b, supra). Briefly, S. aureus strains/isolates RN6390, USA 300, and clinical isolates R2932, R2952 and R3000 were grown to logarithmic phase (OD600 0.4-0.6) at 37° C. in tryptic Soy broth (TSB). The culture was harvested by centrifugation and the pellet was resuspended in assay buffer (400 mM NaCl, 20 mM Tris HCl, 1% glycerol, pH 7.5). Bacterial cultures (100 μl/well) were mixed with 100 μl of (as per MIC) of chimeric Ply187AN-KSH3b protein diluted in the same assay buffer. The reduction in the turbidity was measured after every 5 min up to 1 h using a micro plate reader. EB diluted in the same assay buffer (without chimeric Ply187AN-KSH3b protein) was used as a control (EB C). Resistance development against chimeric Ply187AN-KSH3b was tested using repeated exposure in an MIC assay as described by Rodriguez-Rubio and co-workers (Rodriguez-Rubio et al., PLoS One 8:e64671.). In brief, bacterial cultures (10^5 CFU/well) were exposed overnight to a 2-fold serial dilution of chimeric Ply187AN-KSH3b, lysostaphin, and gentamicin, where the latter serve as controls. […]

[1] = tested on: S. aureus (strain RN6390, USA 300, R 2932, R 2952, R 3000) biofilms; assay: Biofilm disruption (Live/Dead BacLight staining and CFU count); type: cell-based, Staphylococcus aureus; conditions: 24 h biofilms treated for 30 min
Protocol: FIGS. 2A-2E depicts the biofilm disruption activity of chimeric Ply187AN-KSH3b. In FIG. 2A-2E, either chimeric Ply187AN-KSH3b or EB (EB C) or Gentamicin (for MDR/MRSA strains/isolates) was applied to cover slips containing S. aureus RN6390 (FIG. 2A), USA 300 (FIG. 2B), R 2932 (FIG. 2C), R 2952 (FIG. 2D) and R3000 (FIG. 2E) biofilms for 30 min. Bacterial killing was assessed via Live/Dead™ staining and subsequent fluorescence microscopy. FIG. 2F depicts the viability of biofilm associated bacteria enumerated by CFU count. Error bars represent the mean±SEM of two independent experiments performed in triplicate.
Biofilm disruption by the chimeric Ply187AN-KSH3b was observed using Live/Dead BacLight™ staining which takes advantage of SYTO™ 9, a green-fluorescent nucleic acid stain and propidium iodide that fluoresces red. SYTO™ 9 labels a bacterial population with an intact membrane and fluoresces green. In contrast, propidium iodide penetrates bacteria with damaged membranes and fluoresces red. Briefly, static biofilms of S. aureus (strain RN6390, USA 300, R 2932, R 2952, R 3000) were grown on glass cover slips in 6 well tissue culture plates in fresh TSB media seeded with S. aureus. After incubation at 37° C. for 24 h, the biofilms were treated for an additional 30 min with chimeric Ply187AN-KSH3b (as per MIC) diluted in EB or with EB/gentamicin alone. The biofilms were then stained with the Live/Dead BacLight™ bacterial viability kit (Invitrogen, Carlsbad, Calif.), per manufacturer's instruction. The cover slips were washed three times with PBS to remove excess stain and cell debris, mounted with mounting oil on a glass slide, and examined with an Eclipse 90i fluorescence microscope (Nikon, Melville, N.Y.).

Substance | fold change in resistance (S. aureus strain RN6390) | biofilm disruption by Live/Dead staining [1]
gentamicin [reference compound] | 16 fold | green fluorescence
lysostaphin | 128 fold | 
